*1 amine or outer side, *2 acyl side, *3 side chain or, on linkers, in order; H or OH if unused. Where a SMILES comes first, the peptide text is derived from it. Bridges are numbered along the chain shown (N, C = ends). [ ]: non-standard residue; d: D form. ξ: configuration not given here. Trp(1-CH2COOH) = N[C@@H](Cc1cn(CC(=O)O)c2ccccc12)C(=O)O; Phe(3,4,5-F3) = N[C@@H](Cc1cc(F)c(F)c(F)c1)C(=O)O; NMePhe(4-F) = CN[C@@H](Cc1ccc(F)cc1)C(=O)O; NMeW = CN[C@@H](Cc1c[nH]c2ccccc12)C(=O)O; Phe(4-F) = N[C@@H](Cc1ccc(F)cc1)C(=O)O; d(cisHyp) = O=C(O)[C@H]1C[C@@H](O)CN1; Bta = N[C@@H](Cc1csc2ccccc12)C(=O)O; NMeY = CN[C@@H](Cc1ccc(O)cc1)C(=O)O; NMeIle(3ξ) = CCC(C)[C@H](NC)C(=O)O; Hyp = O=C(O)[C@@H]1C[C@@H](O)CN1; NMeF = CN[C@@H](Cc1ccccc1)C(=O)O; X1 = O=C([C@H]1COCCN1[*:1])[*:2]; NMeNle = CCCC[C@H](NC)C(=O)O; dPip = O=C(O)[C@H]1CCCCN1; hSer = N[C@@H](CCO)C(=O)O; NMeA = CN[C@@H](C)C(=O)O; Orn = NCCC[C@H](N)C(=O)O; Dab = NCC[C@H](N)C(=O)O; dAze = O=C(O)[C@H]1CCN1; Abu = CC[C@H](N)C(=O)O; Dap = NC[C@H](N)C(=O)O; ξC = NC(CS)C(=O)O; Sar = CNCC(=O)O
The compounds below were run against T1, Human PD-L1/PD-1 (Homo sapiens, UniProt Q9NZQ7) (assay: HTRF Human PD-L1/PD-1 binding assay (PD-1-Ig/PD-L1-His)). Details: PD-L1-His 10 nM, PD-1-Ig 20 nM; class symbol; read-out: HTRF Human PD-L1/PD-1 Binding Assay IC50 Range.
T1 construct: TVMV protease cleavage site (C); made in house; host or cells: HEK293T cells
How it was run: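 Step 1: compound with PD-L1-His (10 nM final), 15 min. Step 2: PD-1-Ig (20 nM final), 15 min. Step 3: Eu-cryptate anti-Ig (1 nM) plus APC anti-His (20 nM), 30 min equilibration. Signal taken as 665 nm/620 nm ratio.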

T1 sequence (Q9NZQ7 with tags, fused parts or gaps): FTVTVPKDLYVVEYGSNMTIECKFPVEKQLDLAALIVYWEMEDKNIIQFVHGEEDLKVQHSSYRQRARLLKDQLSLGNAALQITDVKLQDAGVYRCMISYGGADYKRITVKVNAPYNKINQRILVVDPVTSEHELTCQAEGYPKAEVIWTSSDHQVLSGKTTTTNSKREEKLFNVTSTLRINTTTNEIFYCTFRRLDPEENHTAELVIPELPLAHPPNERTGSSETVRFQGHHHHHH

IC50 [nM] | Structure (SMILES)
1 to 9.9 | CCCC[C@H]1C(=O)N2C[C@H](O)C[C@@H]2C(=O)N[C@@H](CC(=O)O)C(=O)N[C@@H](C(C)C)C(=O)N(C)[C@@H](Cc2ccccc2)C(=O)N[C@@H](CCCN)C(=O)N2CCC[C@@H]2C(=O)N[C@@H](Cc2c[nH]c3ccccc23)C(=O)N[C@@H](Cc2ccc(O)cc2)C(=O)N[C@@H](CCOC)C(=O)N[C@H](C(=O)NCC(N)=O)CSCC(=O)N[C@@H](Cc2cc(F)c(F)c(F)c2)C(=O)N(C)[C@@H](Cc2ccccc2)C(=O)N1C [Example 10191] ({CH2CO}-[Phe(3,4,5-F3)][NMeF][NMeNle][d(cisHyp)]DV[NMeF][Orn][dP]WY[hSer](Me)CG-NH2; thioether N-13)
10 to 99.9 | CCCC[C@H]1C(=O)N2C[C@H](O)C[C@@H]2C(=O)N[C@@H](CC(=O)O)C(=O)N[C@@H](C(C)C)C(=O)N(C)[C@@H](Cc2ccccc2)C(=O)N[C@@H](CCC(=O)O)C(=O)N2C[C@H](O)C[C@@H]2C(=O)N[C@@H](Cc2c[nH]c3ccccc23)C(=O)N[C@@H](Cc2ccc(O)cc2)C(=O)N[C@@H](CCC(=O)O)C(=O)N[C@H](C(=O)NCC(N)=O)CSCC(=O)N[C@@H](Cc2cc(F)c(F)c(F)c2)C(=O)N(C)[C@@H](Cc2ccc(O)cc2)C(=O)N1C [Example 10637] ({CH2CO}-[Phe(3,4,5-F3)][NMeY][NMeNle][d(cisHyp)]DV[NMeF]E[d(cisHyp)]WYECG-NH2; thioether N-13)
1 to 9.9 | CCCC[C@H]1C(=O)N(C)[C@@H](CCCC)C(=O)N[C@@H](CCN)C(=O)N[C@H](C(=O)NCC(N)=O)CSCC(=O)N[C@@H](Cc2ccc(O)cc2)C(=O)N(C)[C@@H](C)C(=O)N[C@@H](CC(N)=O)C(=O)N2CCC[C@H]2C(=O)N[C@@H](Cc2cnc[nH]2)C(=O)N[C@@H](CCC(=O)O)C(=O)N2C[C@H](O)C[C@H]2C(=O)N[C@@H](Cc2c[nH]c3ccccc23)C(=O)N[C@@H](CCN)C(=O)N[C@@H](Cc2cn(CC(=O)O)c3ccccc23)C(=O)N1C [Example 6331] ({CH2CO}-Y[NMeA]NPHE[Hyp]W[Dab][Trp(1-CH2COOH)][NMeNle][NMeNle][Dab]CG-NH2; thioether N-14)
1 to 9.9 | CCCC[C@H]1C(=O)N2CCOC[C@@H]2C(=O)N[C@@H](CC(=O)O)C(=O)N[C@@H](C(C)C)C(=O)N(C)[C@@H](Cc2ccccc2)C(=O)N[C@@H](Cc2ccc(O)cc2)C(=O)N2CCC[C@@H]2C(=O)N[C@@H](Cc2c[nH]c3ccccc23)C(=O)N[C@@H](Cc2ccc(O)cc2)C(=O)N[C@@H](CCOC)C(=O)N[C@H](C(=O)NCC(N)=O)CSCC(=O)N[C@@H](Cc2cc(F)c(F)c(F)c2)C(=O)N(C)[C@@H](Cc2ccccc2)C(=O)N1C [Example 10185] ({CH2CO}-[Phe(3,4,5-F3)][NMeF][NMeNle][X1]DV[NMeF]Y[dP]WY[hSer](Me)CG-NH2; thioether N-13)
1 to 9.9 | CCCC[C@H]1C(=O)N[C@@H](CN)C(=O)N[C@H](C(=O)NCC(N)=O)CSCC(=O)N[C@@H](Cc2ccc(O)cc2)C(=O)N(C)[C@@H](C)C(=O)N[C@@H](CC(=O)O)C(=O)N2CCC[C@H]2C(=O)N[C@@H](Cc2c[nH]cn2)C(=O)N[C@@H](CCC(=O)O)C(=O)N2C[C@H](O)C[C@H]2C(=O)N[C@@H](Cc2c[nH]c3ccccc23)C(=O)N[C@@H](CCN)C(=O)N[C@@H](Cc2c[nH]c3ccccc23)C(=O)N(C)[C@@H](Cc2c[nH]c3ccccc23)C(=O)N1C [Example 5229] ({CH2CO}-Y[NMeA]DPHE[Hyp]W[Dab]W[NMeW][NMeNle][Dap]CG-NH2; thioether N-14)
10 to 99.9 | CCCC[C@H]1C(=O)N(C)CC(=O)N[C@@H](CO)C(=O)N[C@@H](C(C)C)C(=O)N(C)[C@@H](Cc2ccccc2)C(=O)N[C@@H](Cc2ccc(O)cc2)C(=O)N2CCCC[C@@H]2C(=O)N[C@@H](Cc2c[nH]c3ccccc23)C(=O)N[C@@H](Cc2ccc(O)cc2)C(=O)N[C@@H](CC(C)C)C(=O)N[C@H](C(=O)NCC(N)=O)CSCC(=O)N[C@@H](Cc2ccccc2)C(=O)N(C)[C@@H](Cc2ccccc2)C(=O)N1C [Example 10065] ({CH2CO}-F[NMeF][NMeNle][Sar]SV[NMeF]Y[dPip]WYLCG-NH2; thioether N-13)
10 to 99.9 | CCCC[C@H]1C(=O)N(C)[C@@H](C)C(=O)N[C@@H](CCCNC(=N)N)C(=O)NC(C(=O)NCC(N)=O)CSCC(=O)N[C@@H](Cc2ccc(O)cc2)C(=O)N(C)[C@@H](C)C(=O)N[C@@H](CC(N)=O)C(=O)N2CCC[C@H]2C(=O)N[C@@H](CC(N)=O)C(=O)N[C@@H](CC(C)C)C(=O)N2CCC[C@H]2C(=O)N[C@@H](Cc2c[nH]c3ccccc23)C(=O)N[C@@H](CO)C(=O)N[C@@H](Cc2c[nH]c3ccccc23)C(=O)N1C (stereo partly drawn) [Example 9136] ({CH2CO}-Y[NMeA]NPNLPWSW[NMeNle][NMeA]R[ξC]G-NH2; thioether N-14)

Second part, the compound before the results:

Structure (SMILES) | IC50 [nM]
CCCC[C@H]1C(=O)N2CCC[C@@H]2C(=O)N[C@@H](CC(=O)O)C(=O)N[C@@H](C(C)C)C(=O)N(C)[C@@H](Cc2ccccc2)C(=O)N[C@@H](Cc2ccc(O)cc2)C(=O)N2CCC[C@@H]2C(=O)N[C@@H](Cc2c[nH]c3ccccc23)C(=O)N[C@@H](Cc2ccc(O)cc2)C(=O)N[C@@H](CCCN)C(=O)N[C@H](C(=O)NCC(N)=O)CSCC(=O)N[C@@H](Cc2cc(F)c(F)c(F)c2)C(=O)N(C)[C@@H](Cc2ccccc2)C(=O)N1C [Example 10098] ({CH2CO}-[Phe(3,4,5-F3)][NMeF][NMeNle][dP]DV[NMeF]Y[dP]WY[Orn]CG-NH2; thioether N-13) | 1 to 9.9
CCCC[C@H]1C(=O)N2C[C@H](O)C[C@@H]2C(=O)N[C@@H](CC(=O)O)C(=O)N[C@@H](C(C)C)C(=O)N(C)[C@@H](Cc2ccccc2)C(=O)N[C@@H](CCC(=O)O)C(=O)N2CCOC[C@@H]2C(=O)N[C@@H](Cc2c[nH]c3ccccc23)C(=O)N[C@@H](Cc2ccc(O)cc2)C(=O)N[C@@H](CCC(N)=O)C(=O)N[C@H](C(=O)NCC(N)=O)CSCC(=O)N[C@@H](Cc2cc(F)c(F)c(F)c2)C(=O)N(C)[C@@H](Cc2ccc(F)cc2)C(=O)N1C [Example 10595] ({CH2CO}-[Phe(3,4,5-F3)][NMePhe(4-F)][NMeNle][d(cisHyp)]DV[NMeF]E[X1]WYQCG-NH2; thioether N-13) | 1 to 9.9
CCCC[C@H]1C(=O)N2CCC[C@@H]2C(=O)N[C@@H](CC(=O)O)C(=O)N[C@@H](C(C)C)C(=O)N(C)[C@@H](Cc2ccccc2)C(=O)N[C@@H](Cc2ccc(O)cc2)C(=O)N2CCC[C@@H]2C(=O)N[C@@H](Cc2c[nH]c3ccccc23)C(=O)N[C@@H](Cc2ccc(O)cc2)C(=O)N[C@@H](CO)C(=O)N[C@H](C(=O)NCC(N)=O)CSCC(=O)N[C@@H](Cc2cc(F)c(F)c(F)c2)C(=O)N(C)[C@@H](Cc2ccccc2)C(=O)N1C [Example 10094] ({CH2CO}-[Phe(3,4,5-F3)][NMeF][NMeNle][dP]DV[NMeF]Y[dP]WYSCG-NH2; thioether N-13) | 1 to 9.9
CCCC[C@H]1C(=O)N(C)[C@@H](CCCC)C(=O)N[C@@H](CO)C(=O)NC(C(=O)NCC(N)=O)CSCC(=O)N[C@@H](Cc2ccc(O)cc2)C(=O)N(C)[C@@H](C)C(=O)N[C@@H](CC(N)=O)C(=O)N2CCC[C@H]2C(=O)N[C@@H](CC(N)=O)C(=O)N[C@@H](CC(C)C)C(=O)N2C[C@H](O)C[C@H]2C(=O)N[C@@H](Cc2c[nH]c3ccccc23)C(=O)N[C@@H](CO)C(=O)N[C@@H](Cc2csc3ccccc23)C(=O)N1C (stereo partly drawn) [Example 9143] ({CH2CO}-Y[NMeA]NPNL[Hyp]WS[Bta][NMeNle][NMeNle]S[ξC]G-NH2; thioether N-14) | 10 to 99.9
CCCC[C@H]1C(=O)N2CCC[C@@H]2C(=O)N[C@@H](CO)C(=O)N[C@@H](CC)C(=O)N(C)[C@@H](Cc2ccccc2)C(=O)N[C@@H](Cc2ccc(O)cc2)C(=O)N(C)CC(=O)N[C@@H](Cc2csc3ccccc23)C(=O)N[C@@H](Cc2ccc(O)cc2)C(=O)N[C@@H](CC(C)C)C(=O)N[C@H](C(=O)NCC(N)=O)CSCC(=O)N[C@@H](Cc2ccccc2)C(=O)N(C)[C@@H](Cc2ccccc2)C(=O)N1C [Example 10059] ({CH2CO}-F[NMeF][NMeNle][dP]S[Abu][NMeF]Y[Sar][Bta]YLCG-NH2; thioether N-13) | 10 to 99.9
CCCC[C@H]1C(=O)N2C[C@H](O)C[C@@H]2C(=O)N[C@@H](CC(=O)O)C(=O)N[C@@H](C(C)C)C(=O)N(C)[C@@H](Cc2ccccc2)C(=O)N[C@@H](CCC(=O)O)C(=O)N2CC[C@@H]2C(=O)N[C@@H](Cc2c[nH]c3ccccc23)C(=O)N[C@@H](Cc2ccc(O)cc2)C(=O)N[C@@H](CCCN)C(=O)N[C@H](C(=O)NCC(N)=O)CSCC(=O)N[C@@H](Cc2cc(F)c(F)c(F)c2)C(=O)N(C)[C@@H](Cc2ccccc2)C(=O)N1C [Example 3644] ({CH2CO}-[Phe(3,4,5-F3)][NMeF][NMeNle][d(cisHyp)]DV[NMeF]E[dAze]WY[Orn]CG-NH2; thioether N-13) | 1 to 9.9

Same assay, conditions: PD-L1-His 10 nM, PD-1-Ig 20 nM; read-out: HTRF Human PD-L1/PD-1 Binding Assay IC50

IC50 [nM] | Structure (SMILES)
7280 | CCCC[C@H]1C(=O)N2CCC[C@@H]2C(=O)N[C@@H](CC(=O)O)C(=O)N[C@@H](C(C)C)C(=O)N(C)[C@@H](C(C)CC)C(=O)N[C@@H](Cc2ccc(O)cc2)C(=O)N2CCCC[C@@H]2C(=O)N[C@@H](Cc2c[nH]c3ccccc23)C(=O)N[C@@H](Cc2ccc(O)cc2)C(=O)N[C@@H](CC(C)C)C(=O)N[C@H](C(=O)NCC(N)=O)CSCC(=O)N[C@@H](Cc2ccc(F)cc2)C(=O)N(C)[C@@H](Cc2ccccc2)C(=O)N1C (stereo partly drawn) [Example 9258] ({CH2CO}-[Phe(4-F)][NMeF][NMeNle][dP]DV[NMeIle(3ξ)]Y[dPip]WYLCG-NH2; thioether N-13)
1000 | CCCC[C@H]1C(=O)N(C)[C@@H](CCCC)C(=O)N[C@@H](CCCNC(=N)N)C(=O)NC(C(=O)NCC(N)=O)CSCC(=O)N[C@@H](Cc2ccc(O)cc2)C(=O)N(C)[C@@H](C)C(=O)N[C@@H](CC(N)=O)C(=O)N2CCC[C@H]2C(=O)N[C@@H](CCO)C(=O)N[C@@H](CC(C)C)C(=O)N2CCC[C@H]2C(=O)N[C@@H](Cc2c[nH]c3ccccc23)C(=O)N[C@@H](CO)C(=O)N[C@@H](Cc2csc3ccccc23)C(=O)N1C (stereo partly drawn) [Example 9149] ({CH2CO}-Y[NMeA]NP[hSer]LPWS[Bta][NMeNle][NMeNle]R[ξC]G-NH2; thioether N-14)

— patent US10538555B2, “Macrocyclic inhibitors of the PD-1/PD-L1 and CD80(B7-1)/PD-L1 protein/protein interactions” (BRISTOL-MYERS SQUIBB COMPANY, priority 2014, dated 2020)
